Experimental data as given in ChEMBL document CHEMBL4368864, “The transition to magic bullets - transition state analogue drug design” (Medchemcomm, 2018).

Columns and labels:
[1] = biological target: T1, Purine nucleoside phosphorylase (Homo sapiens, UniProt P00491); assay: Inhibition of human PNP using inosine as substrate by xanthine oxidase coupled assay
T1 sequence (P00491 whole entry): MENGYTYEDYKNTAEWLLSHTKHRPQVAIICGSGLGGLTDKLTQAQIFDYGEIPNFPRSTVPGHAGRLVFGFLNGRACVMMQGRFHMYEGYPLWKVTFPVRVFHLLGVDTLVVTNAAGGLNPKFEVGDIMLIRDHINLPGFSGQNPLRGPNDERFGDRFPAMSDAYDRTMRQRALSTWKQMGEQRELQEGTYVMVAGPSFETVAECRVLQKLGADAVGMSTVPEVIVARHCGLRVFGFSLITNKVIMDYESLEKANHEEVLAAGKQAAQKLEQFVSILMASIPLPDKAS

[2] = biological target: T2, Purine nucleoside phosphorylase (Bos taurus, UniProt P55859); assay: Inhibition of bovine spleen PNP using inosine as substrate by xanthine oxidase coupled assay
T2 sequence (P55859 whole entry): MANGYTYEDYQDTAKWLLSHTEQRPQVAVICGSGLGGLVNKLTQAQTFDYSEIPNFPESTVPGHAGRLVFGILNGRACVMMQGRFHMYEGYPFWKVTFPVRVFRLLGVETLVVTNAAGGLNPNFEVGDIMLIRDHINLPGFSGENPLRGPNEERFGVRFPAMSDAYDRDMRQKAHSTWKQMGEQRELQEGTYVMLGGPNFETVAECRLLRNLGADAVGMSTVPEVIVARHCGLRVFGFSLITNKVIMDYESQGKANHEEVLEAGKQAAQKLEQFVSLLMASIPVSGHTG

[3] = Inhibition of Crithidia fasciculata nucleoside hydrolase
[4] = biological target: T1, Purine nucleoside phosphorylase; assay: Inhibition of human PNP
[5] = Oral bioavailability in mouse; type: ADME, organism-based; conditions: in vivo

Nc1ncnc2c([C@@H]3N[C@H](CO)[C@@H](O)[C@H]3O)c[nH]c12
Ki [1]: 33 nM | Ki [2]: 2600 nM

OC[C@H]1N[C@@H](c2cnc[nH]2)[C@H](O)[C@@H]1O
Ki [3]: 2500 nM

OC[C@H]1N[C@@H](c2ccccc2)[C@H](O)[C@@H]1O
Ki [3]: 170 nM

O=c1[nH]ccn2c([C@@H]3N[C@H](CO)[C@@H](O)[C@H]3O)cnc12
Ki [2]: 422000 nM

Nc1nc2c(ncn2COCCO)c(=O)[nH]1 [ACYCLOVIR]
Ki [4]: 91000 nM

O=c1[nH]cnc2c([C@@H]3N[C@H](CO)[C@@H](O)[C@H]3O)c[nH]c12 [FORODESINE]
bioavailability [5]: 63%

OC[C@H]1NC[C@H](O)[C@@H]1O [IMINORIBITOL]
Ki [3]: 10000 nM

O=c1[nH]cnc2c1ncn2[C@@H]1O[C@H](CO)[C@@H](O)[C@H]1O [INOSINE]
Ki [3]: 380000 nM

Nc1nc2c(Cc3cccnc3)c[nH]c2c(=O)[nH]1 [PELDESINE]
Ki [4]: 13.5 nM
